The values below come from ChEMBL document CHEMBL1926636, “Isoxazoles incorporated N-substituted decahydroquinolines: a precursor to the next generation antimicrobial drug” (2012).

Converted amounts (≈) assume the structure as drawn.

The subject of assay [1] is Salmonella typhi. The experiment in a line: Antibacterial activity against Salmonella typhi ATCC 6539 at 10 ug/mL after 24 hrs by disc diffusion method. In kind it is functional, Salmonella enterica subsp. enterica serovar Typhi. Conditions: Salmonella enterica, ATCC 6539, 24 h; read-out: IZ. Background: A growth-free zone around the sample is the usual read-out of agar diffusion tests.

Assay [2] deals with Escherichia coli. Kind of assay: Antibacterial activity against Escherichia coli ATCC 35218 at 10 ug/mL after 24 hrs by disc diffusion method. Conditions: ATCC 35218, 24 h, read-out: IZ. In kind it is functional.
The subject of assay [3] is Bacillus subtilis. Kind of assay: Antibacterial activity against Bacillus subtilis ATCC 6631 by twofold serial dilution technique. It counts as functional.
The test system of assay [4] is Candida albicans. The experiment in a line: Antifungal activity against Candida albicans PYCC 3436 at 10 ug/mL after 72 hrs by agar cup plate method. The settings on record: PYCC 3436, 72 h, read-out: IZ. In kind it is functional.
Assay [5] relates to Candida albicans. Kind of assay: Antifungal activity against Candida albicans ATCC 90028 by twofold serial dilution technique. It counts as functional.
Assay [6] has as its system Lysinibacillus sphaericus. Kind of assay: Antibacterial activity against Bacillus sphaericus ATCC 7031 at 10 ug/mL after 24 hrs by disc diffusion method. In kind it is functional. The settings on record: ATCC 7031, 24 h, read-out: IZ.
For assay [7], the system named is Staphylococcus aureus. Kind of assay: Antibacterial activity against Staphylococcus aureus ATCC 6538 at 10 ug/mL after 24 hrs by disc diffusion method. In kind it is functional. Conditions: ATCC 6538, 24 h, read-out: IZ.
The test system of assay [8] is Aspergillus fumigatus. The experiment in a line: Antifungal activity against Aspergillus fumigatus ATCC 28212 by twofold serial dilution technique. It counts as functional.
Assay [9] deals with Pseudomonas aeruginosa. The experiment in a line: Antibacterial activity against Pseudomonas aeruginosa ATCC 9027 by twofold serial dilution technique. In kind it is functional.
Assay [10] deals with Bacillus subtilis. The experiment in a line: Antibacterial activity against Bacillus subtilis ATCC 6631 at 10 ug/mL after 24 hrs by disc diffusion method. It counts as functional. Conditions: ATCC 6631, 24 h, read-out: IZ.
Assay [11] deals with Aspergillus niger. Kind of assay: Antifungal activity against Aspergillus niger ATCC 16404 at 10 ug/mL after 72 hrs by agar cup plate method. In kind it is functional. Conditions: ATCC 16404, 72 h, read-out: IZ.
The test system of assay [12] is Candida albicans. Kind of assay: Antifungal activity against Candida albicans PYCC 3436 by twofold serial dilution technique. In kind it is functional.
For assay [13], the system named is Aspergillus niger. Kind of assay: Antifungal activity against Aspergillus niger ATCC 16404 by twofold serial dilution technique. In kind it is functional.
Assay [14] relates to Pseudomonas aeruginosa. The experiment in a line: Antibacterial activity against Pseudomonas aeruginosa ATCC 9027 at 10 ug/mL after 24 hrs by disc diffusion method. In kind it is functional. The settings on record: ATCC 9027, 24 h, read-out: IZ.
Assay [15] concerns Escherichia coli. Kind of assay: Antibacterial activity against Escherichia coli ATCC 35218 by twofold serial dilution technique. It counts as functional.
For assay [16], the system named is Aspergillus fumigatus. Kind of assay: Antifungal activity against Aspergillus fumigatus ATCC 28212 at 10 ug/mL after 72 hrs by agar cup plate method. It counts as functional. Conditions: ATCC 28212, 72 h, read-out: IZ.
For assay [17], the system named is Lysinibacillus sphaericus. Kind of assay: Antibacterial activity against Bacillus sphaericus ATCC 7031 by twofold serial dilution technique. It counts as functional.
Assay [18] relates to Candida albicans. The experiment in a line: Antifungal activity against Candida albicans ATCC 90028 at 10 ug/mL after 72 hrs by agar cup plate method. It counts as functional. Conditions: ATCC 90028, 72 h, read-out: IZ.
Assay [19] has as its system Salmonella typhi. The experiment in a line: Antibacterial activity against Salmonella typhi ATCC 6539 by twofold serial dilution technique. Conditions: Salmonella enterica. In kind it is functional, Salmonella enterica subsp. enterica serovar Typhi.
Assay [20] deals with Staphylococcus aureus. The experiment in a line: Antibacterial activity against Staphylococcus aureus ATCC 6538 by twofold serial dilution technique. In kind it is functional.

On to `c1ccc(CN2C(c3ccccc3)C3=C(NOC3c3ccccn3)C3CCCCC32)cc1` (stereo not given), for which the zone of inhibition at 10 µg/mL with Salmonella typhi [1] was determined as 11 mm; in the assay on Escherichia coli [2], 7 mm; in the assay with Candida albicans [4], 18 mm; in assay [6], 16 mm; in the assay with Staphylococcus aureus [7], 12 mm; in the assay with Bacillus subtilis [10], 6 mm. For the same compound, the zone of inhibition at 10 µg/mL is 10 mm with Aspergillus niger [11], 7 mm with Pseudomonas aeruginosa [14], 7 mm with Aspergillus fumigatus [16] and 18 mm in the assay on Candida albicans [18]. Moreover, the MIC99 was 50 µg/mL (≈ 118 µM) in the assay on Bacillus subtilis [3]; 50 µg/mL (≈ 118 µM) in the assay with Candida albicans [5]; 12.5 µg/mL (≈ 29.5 µM) with Aspergillus fumigatus [8]; 12.5 µg/mL (≈ 29.5 µM) against Pseudomonas aeruginosa [9]; 12.5 µg/mL (≈ 29.5 µM) with Candida albicans [12]; 100 µg/mL (≈ 236 µM) with Aspergillus niger [13]. The MIC99 stood at 25 µg/mL (≈ 59 µM) against Escherichia coli [15], 25 µg/mL (≈ 59 µM) in assay [17], 50 µg/mL (≈ 118 µM) in the assay with Salmonella typhi [19] and 50 µg/mL (≈ 118 µM) in the assay on Staphylococcus aureus [20].
With `Clc1ccccc1C1ONC2=C1C(c1ccccc1)N(Cc1ccccc1)C1CCCCC21` (stereo not given), the zone of inhibition at 10 µg/mL in the assay with Salmonella typhi [1] was determined as 9 mm; in the assay on Escherichia coli [2] it was 7 mm; with Candida albicans [4] it was 16 mm; in [6] it was 13 mm; in the assay on Staphylococcus aureus [7], 12 mm; with Bacillus subtilis [10], 5 mm. Besides, the zone of inhibition at 10 µg/mL worked out at 14 mm in the assay on Aspergillus niger [11], 6 mm with Pseudomonas aeruginosa [14], 5 mm in the assay on Aspergillus fumigatus [16] and 22 mm with Candida albicans [18]. Also, the MIC99 with Bacillus subtilis [3] amounted to 50 µg/mL (≈ 109 µM); against Candida albicans [5], 25 µg/mL (≈ 54.7 µM); in the assay with Aspergillus fumigatus [8] it was 25 µg/mL (≈ 54.7 µM); with Pseudomonas aeruginosa [9], 25 µg/mL (≈ 54.7 µM); against Candida albicans [12] it was 25 µg/mL (≈ 54.7 µM); in the assay on Aspergillus niger [13] it was 100 µg/mL (≈ 219 µM). For the same compound, the MIC99 is 25 µg/mL (≈ 54.7 µM) in the assay with Escherichia coli [15], 50 µg/mL (≈ 109 µM) in assay [17], more than 100 µg/mL against Salmonella typhi [19] and 50 µg/mL (≈ 109 µM) in the assay on Staphylococcus aureus [20].
Consider `COc1ccc(C2ONC3=C2C(c2ccccc2)N(Cc2ccccc2)C2CCCCC32)cc1OC` (stereo not given), for which the zone of inhibition at 10 µg/mL in the assay with Salmonella typhi [1] worked out at 12 mm; in the assay on Escherichia coli [2] it was 6 mm; in the assay on Candida albicans [4], 9 mm; in assay [6], 9 mm; in the assay on Staphylococcus aureus [7], 9 mm; in the assay on Bacillus subtilis [10], 7 mm. The zone of inhibition at 10 µg/mL in the assay with Aspergillus niger [11] amounted to 14 mm; in the assay with Pseudomonas aeruginosa [14], 4 mm; with Aspergillus fumigatus [16], 6 mm; in the assay with Candida albicans [18] it was 15 mm. The MIC99 with Bacillus subtilis [3] was found to be 50 µg/mL (≈ 104 µM); in the assay on Candida albicans [5], 50 µg/mL (≈ 104 µM); against Aspergillus fumigatus [8] it was 12.5 µg/mL (≈ 25.9 µM); against Pseudomonas aeruginosa [9], 25 µg/mL (≈ 51.8 µM); against Candida albicans [12] it was 50 µg/mL (≈ 104 µM); against Aspergillus niger [13], 100 µg/mL (≈ 207 µM). For the same compound, the MIC99 against Escherichia coli [15] was determined as 50 µg/mL (≈ 104 µM); in assay [17], 100 µg/mL (≈ 207 µM); against Salmonella typhi [19] it was 100 µg/mL (≈ 207 µM); in the assay on Staphylococcus aureus [20], 100 µg/mL (≈ 207 µM).
As to `c1ccc(CN2C(c3ccccc3)C3=C(NOC3c3cccnc3)C3CCCCC32)cc1` (stereo not given), the zone of inhibition at 10 µg/mL in the assay on Salmonella typhi [1] is 11 mm; in the assay on Escherichia coli [2], 4 mm; with Candida albicans [4] it was 17 mm; in assay [6] it was 13 mm; in the assay with Staphylococcus aureus [7], 11 mm; in the assay with Bacillus subtilis [10], 3 mm. For the same compound, the zone of inhibition at 10 µg/mL is 8 mm in the assay with Aspergillus niger [11], 4 mm in the assay on Pseudomonas aeruginosa [14], 6 mm in the assay on Aspergillus fumigatus [16] and 17 mm in the assay on Candida albicans [18]. The MIC99 with Bacillus subtilis [3] is 100 µg/mL (≈ 236 µM); in the assay on Candida albicans [5], 50 µg/mL (≈ 118 µM); with Aspergillus fumigatus [8], 12.5 µg/mL (≈ 29.5 µM); with Pseudomonas aeruginosa [9], 50 µg/mL (≈ 118 µM); with Candida albicans [12] it was 12.5 µg/mL (≈ 29.5 µM); in the assay with Aspergillus niger [13] it was more than 100 µg/mL. The MIC99 in the assay on Escherichia coli [15] amounted to 100 µg/mL (≈ 236 µM); in assay [17] it was 50 µg/mL (≈ 118 µM); in the assay with Salmonella typhi [19] it was 100 µg/mL (≈ 236 µM); against Staphylococcus aureus [20] it was 50 µg/mL (≈ 118 µM).
In the case of `O=[N+]([O-])c1ccc(C2ONC3=C2C(c2ccccc2)N(Cc2ccccc2)C2CCCCC32)cc1` (stereo not given), the zone of inhibition at 10 µg/mL was found to be 10 mm with Salmonella typhi [1]; 5 mm in the assay on Escherichia coli [2]; 12 mm in the assay with Candida albicans [4]; 14 mm in assay [6]; 11 mm in the assay on Staphylococcus aureus [7]; 4 mm with Bacillus subtilis [10]. In addition, the zone of inhibition at 10 µg/mL stood at 13 mm with Aspergillus niger [11], 6 mm with Pseudomonas aeruginosa [14], 6 mm in the assay on Aspergillus fumigatus [16] and 19 mm in the assay with Candida albicans [18]. The MIC99 is 100 µg/mL (≈ 214 µM) with Bacillus subtilis [3]; 50 µg/mL (≈ 107 µM) in the assay on Candida albicans [5]; 12.5 µg/mL (≈ 26.7 µM) against Aspergillus fumigatus [8]; 12.5 µg/mL (≈ 26.7 µM) against Pseudomonas aeruginosa [9]; 50 µg/mL (≈ 107 µM) with Candida albicans [12]; 100 µg/mL (≈ 214 µM) against Aspergillus niger [13]. The MIC99 in the assay on Escherichia coli [15] is 50 µg/mL (≈ 107 µM); in assay [17], 50 µg/mL (≈ 107 µM); in the assay with Salmonella typhi [19], 100 µg/mL (≈ 214 µM); in the assay with Staphylococcus aureus [20] it was 50 µg/mL (≈ 107 µM).
Take `Clc1ccc(C2ONC3=C2C(c2ccccc2)N(Cc2ccccc2)C2CCCCC32)cc1` (stereo not given): the zone of inhibition at 10 µg/mL with Salmonella typhi [1] is 9 mm; in the assay on Escherichia coli [2], 4 mm; in the assay with Candida albicans [4], 18 mm; in assay [6], 16 mm; with Staphylococcus aureus [7] it was 14 mm; in the assay on Bacillus subtilis [10], 6 mm. The zone of inhibition at 10 µg/mL with Aspergillus niger [11] was 16 mm; with Pseudomonas aeruginosa [14], 5 mm; with Aspergillus fumigatus [16], 4 mm; in the assay with Candida albicans [18], 21 mm. For the same compound, the MIC99 came to 50 µg/mL (≈ 109 µM) against Bacillus subtilis [3]; 25 µg/mL (≈ 54.7 µM) in the assay on Candida albicans [5]; 50 µg/mL (≈ 109 µM) in the assay on Aspergillus fumigatus [8]; 25 µg/mL (≈ 54.7 µM) in the assay with Pseudomonas aeruginosa [9]; 12.5 µg/mL (≈ 27.4 µM) in the assay on Candida albicans [12]; 100 µg/mL (≈ 219 µM) against Aspergillus niger [13]. In addition, the MIC99 with Escherichia coli [15] was 50 µg/mL (≈ 109 µM); in assay [17], 25 µg/mL (≈ 54.7 µM); in the assay on Salmonella typhi [19], more than 100 µg/mL; against Staphylococcus aureus [20], 50 µg/mL (≈ 109 µM).

For orientation: MIC99 means the lowest concentration that inhibits either 99% of growth or 99% of the strains tested, depending on the study. A high value points to weaker potency.
